Data taken from patent US8735414B2 (priority 2009, dated 2014).

These molecules were tested on bicistronic HCV replicon (replicon RNA, GenBank Accession No. AJ242654) (assay: HCV Replicon Assay). Details: Hepatitis C virus, 72 h, read-out: Replicon IC50.
Format: cell-based

N#Cc1c(-c2ccc(S(=O)(=O)NC(CF)CF)cn2)n(C2CCCC2)c2ccc(C(F)F)cc12 [compound 535, 6-[3-cyano-1-cyclopentyl-5-(difluoromethyl)-1H-indol-2-yl]-N-(1,3-difluoropropan-2-yl)pyridine-3-sulfonamide] and CSc1ccc2c(C#N)c(-c3ccc(S(=O)(=O)NC(CF)CF)cn3)n(C3CCC3)c2c1 [compound 161, 6-[3-cyano-1-cyclobutyl-6-(methylsulfanyl)-1H-indol-2-yl]-N-(1,3-difluoropropan-2-yl)pyridine-3-sulfonamide] cannot be ordered by IC50: < 500 nM for the first, < 500 nM for the second.

CC(C)NS(=O)(=O)c1cnc(-c2c(C#N)c3ccc(Cl)cc3n2C2CCCC2)nc1 [compound 189, 2-(6-chloro-3-cyano-1-cyclopentyl-1H-indol-2-yl)-N-(propan-2-yl)pyrimidine-5-sulfonamide] and C[C@H](NS(=O)(=O)c1cnc(-c2c(C#N)c3ccc(F)cc3n2C2CCCC2)nc1)C1CC1 [compound 497, 2-(3-cyano-1-cyclopentyl-6-fluoro-1H-indol-2-yl)-N-[(1S)-1-cyclopropylethyl]pyrimidine-5-sulfonamide] cannot be ordered by IC50: < 500 nM for the first, < 500 nM for the second.

CC(C)(NS(=O)(=O)c1ccc(-c2c(C#N)c3cc(F)c(OC(F)F)cc3n2C2CCCC2)nc1)C(F)(F)F [compound 862, 6-[3-cyano-1-cyclopentyl-6-(difluoromethoxy)-5-fluoro-1H-indol-2-yl]-N-(1,1,1-trifluoro-2-methylpropan-2-yl)pyridine-3-sulfonamide] and Cc1cc2c(cc1O)c(C#N)c(-c1ccc(S(=O)(=O)N[C@H](C)C(F)(F)F)cn1)n2C1CCCC1 [compound 693, 6-(3-cyano-1-cyclopentyl-5-hydroxy-6-methyl-1H-indol-2-yl)-N-[(2R)-1,1,1-trifluoropropan-2-yl]pyridine-3-sulfonamide] cannot be ordered by IC50: < 500 nM for the first, < 500 nM for the second.

Cc1cc2c(cc1F)c(C#N)c(-c1ncc(S(=O)(=O)N[C@@H](C)C(F)(F)F)cn1)n2C1CCOCC1 [compound 753, 2-[3-cyano-5-fluoro-6-methyl-1-(tetrahydro-2H-pyran-4-yl)-1H-indol-2-yl]-N-[(2S)-1,1,1-trifluoropropan-2-yl]pyrimidine-5-sulfonamide] and CCc1cc2c(cc1F)c(C#N)c(-c1ccc(S(=O)(=O)N[C@@H](C)C(F)(F)F)cn1)n2C1CC1 [compound 910, 6-(3-cyano-1-cyclopropyl-6-ethyl-5-fluoro-1H-indol-2-yl)-N-[(2S)-1,1,1-trifluoropropan-2-yl]pyridine-3-sulfonamide] cannot be ordered by IC50: < 500 nM for the first, < 500 nM for the second.

Cc1ccc2c(c1)c(C#N)c(-c1ccc(S(=O)(=O)N[C@H](C)C(F)(F)F)cn1)n2C1CCCC1 [compound 486, 6-(3-cyano-1-cyclopentyl-5-methyl-1H-indol-2-yl)-N-[(2R)-1,1,1-trifluoropropan-2-yl]pyridine-3-sulfonamide] and C[C@H](NS(=O)(=O)c1ccc(-c2c(C#N)c3ccc(Cl)cc3n2C2CCC2)nc1)C1CC1 [compound 154, 6-(6-chloro-3-cyano-1-cyclobutyl-1H-indol-2-yl)-N-[(1S)-1-cyclopropylethyl]pyridine-3-sulfonamide] cannot be ordered by IC50: < 500 nM for the first, < 500 nM for the second.

CCc1cc2c(cc1F)c(C#N)c(-c1ccc(S(=O)(=O)N[C@@H](C)C(F)(F)F)cn1)n2-c1ccc(C)cn1 [compound 931, 6-[3-cyano-6-ethyl-5-fluoro-1-(5-methylpyridin-2-yl)-1H-indol-2-yl]-N-[(2S)-1,1,1-trifluoropropan-2-yl]pyridine-3-sulfonamide] and Cc1cc2c(cc1F)cc(-c1ccc(S(=O)(=O)N[C@@H](C)C(F)(F)F)cn1)n2-c1cccs1 [compound 989, 6-[5-fluoro-6-methyl-1-(thiophen-2-yl)-1H-indol-2-yl]-N-[(2S)-1,1,1-trifluoropropan-2-yl]pyridine-3-sulfonamide] cannot be ordered by IC50: < 500 nM for the first, < 500 nM for the second.

For N#Cc1c(-c2ccc(S(=O)(=O)NC3(C(F)(F)F)CC3)cn2)n(-c2ccccn2)c2cc(OC(F)F)ccc12 [compound 623, 6-[3-cyano-6-(difluoromethoxy)-1-(pyridin-2-yl)-1H-indol-2-yl]-N-[1-(trifluoromethyl)cyclopropyl]pyridine-3-sulfonamide], the IC50 was 500 to 2000 nM.
